# In patent publication US20250144067A1, “PERSONALIZED STARVATION THERAPY FOR CANCER” (Faeth Therapeutics, Inc., priority 2021, published 2025):
# Where a name gives a salt, the structure may show the parent alone. Read-outs that look alike come from different tables or passages of the source.
# Tests used:
# [1] = tested on: NCI-H292 lung cancer cells; assay: FDA drug screening, complete media vs cholesterol-free media with simvastatin (TABLE 2); format: cell-based, human
# [2] = tested on: NCI-H292 lung cancer cells; assay: FDA drug screening, complete media vs cholesterol-free media without statin (TABLE 1); format: cell-based, human
# [3] = NCI-H292 cells, FDA drug library screen, cholesterol-free media with simvastatin 0.04 μM
# [4] = complete media minus cholesterol-free media + simvastatin, >0 enhanced anti-cancer activity, about 0 neutral, <0 antagonist
# [5] = Complete minus Cholesterol-free, >0 enhanced anti-cancer activity, about 0 neutral, <0 antagonist
# [6] = NCI-H292 cells, cholesterol-free media without statin, FDA drug library screen
# [7] = NCI-H292 cells, complete media, FDA drug library screen
# [8] = NCI-H292 cells, drug in cholesterol-free media with simvastatin 0.04 μM
# [9] = NCI-H292 cells, drug in complete media
# [10] = complete media vs cholesterol-free media + simvastatin (0.04 μM), >0 enhanced anti-cancer activity, about 0 neutral, <0 antagonist
# [11] = NCI-H292 cells, cholesterol-free media without statin
# [12] = complete vs cholesterol-free media, greater than 0 enhanced anti-cancer activity, about 0 neutral, below 0 antagonists
# [13] = NCI-H292 cells, cholesterol-free media with simvastatin 0.04 μM, FDA drug library screen (TABLE 2)
# [14] = NCI-H292 cells, complete media, FDA drug library screen (TABLE 2)
# [15] = complete media minus cholesterol-free media + simvastatin (0.04 μM), >0 enhanced anti-cancer activity, about 0 neutral, <0 antagonist
# [16] = Complete minus Cholesterol-free, greater than 0 enhanced anti-cancer activity, about 0 neutral, below 0 antagonists
# [17] = NCI-H292 cells in cholesterol-free media without statin
# [18] = NCI-H292 cells in complete media
# [19] = NCI-H292 cells, cholesterol-free media with simvastatin 0.04 μM, cell growth value in FDA drug screen
# [20] = NCI-H292 cells, complete media, cell growth value in FDA drug screen
# [21] = complete vs cholesterol-free media, >0 enhanced anti-cancer activity, about 0 neutral, <0 antagonist
# [22] = NCI-H292 cells, FDA library drug in cholesterol-free media with simvastatin 0.04 μM
# [23] = NCI-H292 cells, FDA library drug in complete media
# [24] = complete media minus cholesterol-free media + simvastatin (0.04 μM), […]
# [25] = Complete minus Cholesterol-free, […]
# [26] = NCI-H292 cells, FDA drug library screen, cholesterol-free media without statin
# [27] = NCI-H292 cells, FDA drug library screen, complete media
compound,measurement,setting,value
CNC[C@H](O)[C@@H](O)[C@H](O)[C@H](O)CO.O=C(O)c1ccc2nc(-c3cc(Cl)cc(Cl)c3)oc2c1 [Tafamidis meglumine],Cholesterol-free media + simvastatin (0.04 μM),[1]; [3],0.9551
same,Difference,[1]; [4],0.20
same,Difference,[2]; [5],−0.03
same,Cholesterol-free,[2]; [6],0.8398
same,Complete,[2]; [7],0.8088
CC(Cc1cccc(C(F)(F)F)c1)NCCOC(=O)c1ccccc1 (centres unmarked) [Benfluorex (hydrochloride)],Cholesterol-free media + simvastatin (0.04 μM),[1]; [8],1.041
same,Complete Media,[1]; [9],0.8151
same,Difference,[1]; [10],−0.23
same,Cholesterol-free,[2]; [11],1.106
same,Complete,"[2]; NCI-H292 cells, complete media",0.6694
same,Difference,[2]; [12],−0.44
Phentolamine (mesylate),Cholesterol-free media + simvastatin (0.04 μM),[1]; [13],0.9072
same,Complete Media,[1]; [14],0.8992
same,Difference,[1]; [15],−0.01
same,Difference,[2]; [16],−0.51
same,Cholesterol-free,[2]; [17],1.404
same,Complete,[2]; [18],0.8982
Cc1ccc(C(C)C)c(O)c1 [Thymol],Cholesterol-free media + simvastatin (0.04 μM),[1]; [8],1.184
same,Complete Media,[1]; [9],0.956
same,Difference,[1]; [10],−0.23
same,Cholesterol-free,[2]; [11],1.354
same,Complete,"[2]; NCI-H292 cells, complete media",1.041
same,Difference,[2]; [12],−0.31
O=C(CCCN1CCN(c2ccccn2)CC1)c1ccc(F)cc1 [Azaperone],Cholesterol-free media + simvastatin (0.04 μM),[1]; [13],1.007
same,Complete Media,[1]; [14],0.9983
same,Difference,[1]; [15],−0.01
same,Difference,[2]; [5],−0.01
same,Cholesterol-free,[2]; [6],0.9307
same,Complete,[2]; [7],0.9163
N[C@@H](Cc1c[nH]c2ccc(O)cc12)C(=O)O [5-Hydroxytryptophan],Cholesterol-free media + simvastatin (0.04 μM),[1]; [8],1.063
same,Complete Media,[1]; [9],0.8252
same,Difference,[1]; [10],−0.24
same,Cholesterol-free,[2]; [11],1.189
same,Complete,"[2]; NCI-H292 cells, complete media",0.856
same,Difference,[2]; [12],−0.33
COc1nc2ccc(Br)cc2cc1[C@@H](c1ccccc1)[C@@](O)(CCN(C)C)c1cccc2ccccc12 [Bedaquiline],Cholesterol-free media + simvastatin (0.04 μM),[1]; [19],1.492
same,Complete Media,[1]; [20],1.59
same,Difference,[1]; [4],0.10
same,Cholesterol-free,[2]; [6],0.6087
same,Complete,[2]; [7],1.472
same,Difference,[2]; [21],0.86
CCCCCCCC/C=C\CCCCCCCC(=O)O [Oleic acid],Cholesterol-free media + simvastatin (0.04 μM),[1]; [19],0.7267
same,Complete Media,[1]; [20],0.8301
same,Difference,[1]; [4],0.10
same,Difference,[2]; [5],−0.25
same,Cholesterol-free,[2]; [11],1.214
same,Complete,"[2]; NCI-H292 cells, complete media",0.9643
Cc1ncc(CNC(=O)N(CCCl)N=O)c(N)n1 [Nimustine (hydrochloride)],Cholesterol-free media + simvastatin (0.04 μM),[1],1.194
same,Complete Media,[1],1.026
same,Difference,[1],−0.17
same,Cholesterol-free,[2],1.02
same,Complete,[2],1.016
same,Difference,[2],0.00
CC(=O)c1ccc(O)c(C(=O)O)c1 [5-Acetylsalicylic acid],Cholesterol-free media + simvastatin (0.04 μM),[1]; [22],1.188
same,Complete Media,[1]; [23],0.8198
same,Difference,[1]; [10],−0.37
same,Cholesterol-free,[2]; [6],0.912
same,Complete,[2]; [7],1.045
same,Difference,[2]; [21],0.13
O=NN(CCCl)C(=O)NC1CCCCC1 [Lomustine],Cholesterol-free media + simvastatin (0.04 μM),[1]; [13],0.7579
same,Complete Media,[1]; [14],0.7602
same,Difference,[1]; [24],0.00
same,Difference,[2]; [25],−0.14
same,Cholesterol-free,[2]; [26],1.107
same,Complete,[2]; [27],0.965
Cc1nc2n(c(=O)c1CCN1CCC(c3noc4cc(F)ccc34)CC1)CCCC2 [Risperidone],Cholesterol-free media + simvastatin (0.04 μM),[1],0.9957
same,Difference,[1],0.16
same,Cholesterol-free,[2],1.099
same,Complete,[2],0.9616
same,Difference,[2],−0.14
COP(=S)(OC)Oc1ccc([N+](=O)[O-])c(C)c1 [Fenitrothion],Cholesterol-free media + simvastatin (0.04 μM),[1]; [3],1.585
same,Complete Media,[1]; [27],1.426
same,Difference,"[1]; complete media vs cholesterol-free media + simvastatin (0.04 μM), […]",−0.16
same,Difference,[2]; [25],−0.22
same,Cholesterol-free,[2]; [11],0.8622
same,Complete,"[2]; NCI-H292 cells, complete media",0.6445
CC(=O)OCC(=O)[C@@]1(OC(C)=O)[C@@H](C)C[C@H]2[C@@H]3C[C@H](F)C4=CC(=O)C=C[C@]4(C)[C@@]3(F)[C@@H](O)C[C@@]21C [Diflorasone],Cholesterol-free media + simvastatin (0.04 μM),[1]; [3],0.8775
same,Difference,[1]; [4],0.30
same,Difference,"[2]; Complete minus Cholesterol-free, greater than 0 enhanced anti-cancer activity, about 0 neutral, below 0 antagonist",−0.10
same,Cholesterol-free,[2]; [26],0.7536
same,Complete,[2]; [27],0.6518
Cc1cc(CC(C)CC(C)(C)C)n(O)c(=O)c1.NCCO (centres unmarked) [Piroctone olamine],Cholesterol-free media + simvastatin (0.04 μM),[1]; [19],0
same,Complete Media,[1]; [20],0.02737
same,Difference,[1]; [4],0.03
same,Difference,[2]; [5],−0.05
same,Cholesterol-free,[2]; [6],0.04765
same,Complete,[2]; [7],0.0002612
CC1(C)NC(=O)N(c2ccc([N+](=O)[O-])c(C(F)(F)F)c2)C1=O [Nilutamide],Cholesterol-free media + simvastatin (0.04 μM),[1]; [22],1.474
same,Complete Media,[1]; [23],1.003
same,Difference,[1]; [10],−0.47
same,Difference,[2]; [16],−0.63
same,Cholesterol-free,[2]; [17],1.565
same,Complete,[2]; [18],0.9342
O=C(O)/C=C/c1ccc(O)c(O)c1 [Caffeic acid],Cholesterol-free media + simvastatin (0.04 μM),[1]; [3],0.9424
same,Complete Media,[1]; [27],0.8032
same,Difference,[1]; [10],−0.14
same,Difference,[2]; [5],0.01
same,Cholesterol-free,[2]; [6],0.885
same,Complete,[2]; [7],0.8915
C#C[C@]1(OC(C)=O)CC[C@H]2[C@@H]3CCC4=C[C@@H](OC(C)=O)CC[C@@H]4[C@H]3CC[C@@]21C [Ethynodiol diacetate],Cholesterol-free media + simvastatin (0.04 μM),[1]; [22],1.26
same,Complete Media,[1]; [23],0.9323
same,Difference,[1]; [10],−0.33
same,Difference,[2]; [16],−0.50
same,Cholesterol-free,[2]; [17],1.654
same,Complete,[2]; [18],1.155
CN1C2CCCC1CC(NC(=O)c1nn(C)c3ccccc13)C2 (centres unmarked) [Granisetron (Hydrochloride)],Cholesterol-free media + simvastatin (0.04 μM),[1]; [13],0.8994
same,Complete Media,[1]; [14],0.8536
same,Difference,[1]; [15],−0.05
same,Difference,[2]; [5],−0.26
same,Cholesterol-free,[2]; [11],1.123
same,Complete,"[2]; NCI-H292 cells, complete media",0.8639
CN[C@@H]1[C@H](O)[C@H](NC)[C@H]2O[C@@]3(O)C(=O)C[C@@H](C)O[C@H]3O[C@@H]2[C@H]1O [Spectinomycin (dihydrochloride)],Cholesterol-free media + simvastatin (0.04 μM),[1]; [13],1.126
same,Complete Media,[1]; [14],1.142
same,Difference,[1]; [15],0.02
same,Cholesterol-free,[2]; [6],0.9841
same,Complete,[2]; [7],1.077
same,Difference,[2]; [21],0.09
Thymopentin (acetate),Complete Media,[1]; [14],1.151
same,Difference,[1]; [24],0.00
same,Cholesterol-free,[2]; [6],0.9838
same,Complete,[2]; [7],1.095
same,Difference,"[2]; complete vs cholesterol-free media, […]",0.11
CN(C)N(C)C(=O)[C@@]1(Cc2ccccc2)CCCN(C(=O)[C@@H](Cc2c[nH]c3ccccc23)NC(=O)C(C)(C)N)C1 [Anamorelin],Cholesterol-free media + simvastatin (0.04 μM),[1]; [19],1.263
same,Complete Media,[1]; [20],1.358
same,Difference,[1]; [4],0.10
same,Difference,[2]; [16],−0.54
same,Cholesterol-free,[2]; [17],1.02
same,Complete,[2]; [18],0.4827
C[C@]12CCC(=O)C=C1CC[C@@H]1[C@@H]2[C@@H](O)C[C@@]2(C)[C@H]1CC[C@]2(O)C(=O)COC(=O)CCC1CCCC1 [Hydrocortisone cypionate],Cholesterol-free media + simvastatin (0.04 μM),[1],0.7228
same,Complete Media,[1],0.7215
same,Difference,[1],0.00
same,Cholesterol-free,[2],1.099
same,Complete,[2],0.6914
same,Difference,[2],−0.41
